In PubChem BioAssay AID1963856 (Molecular Pharmacology Branch, DTP, NCI, 2024):
The source made the active and inactive calls. The calls were made as follows: active = viability on the fitted dose curve at most 10% of control; inactive = the rest.

Tested on: LG0567-F671-PDC KRAS tumor spheroid viability
Experiment: Anticancer human tumor LG0567-F671-PDC patient-derived lung adenocarcinoma cell line growth inhibition [KRAS2]
Conditions: spheroids with HUVEC and MSC; for IC50: curve of first compound; for viability, T/C: stronger effect = lower value
In short: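 Combination screen of spheroid viability in tumor-cell co-cultures with endothelial (HUVEC) and mesenchymal stem cell stroma. Each agent was tested in half-log dilutions, topping at clinical Cmax or at 10 microM without a known Cmax.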

[1] = second compound 0.1 µM, first compound 0.000316 µM
[2] = second compound 0.1 µM, first compound 0.001 µM
[3] = second compound 0.1 µM, first compound 0.00316 µM
[4] = second compound 0.1 µM, first compound 0.01 µM
[5] = second compound 0.1 µM, first compound 0.0316 µM
[6] = second compound 0.1 µM, first compound 0.1 µM
[7] = second compound 0.316 µM, first compound 0.000316 µM
[8] = second compound 0.316 µM, first compound 0.001 µM
[9] = second compound 0.316 µM, first compound 0.00316 µM
[10] = second compound 0.316 µM, first compound 0.01 µM
[11] = second compound 0.316 µM, first compound 0.0316 µM
[12] = second compound 0.316 µM, first compound 0.1 µM
[13] = second compound 1 µM, first compound 0.000316 µM
[14] = second compound 1 µM, first compound 0.001 µM
[15] = second compound 1 µM, first compound 0.00316 µM
[16] = second compound 1 µM, first compound 0.01 µM
[17] = second compound 1 µM, first compound 0.0316 µM
[18] = second compound 1 µM, first compound 0.1 µM
[19] = second compound 3.16 µM, first compound 0.000316 µM
[20] = second compound 3.16 µM, first compound 0.001 µM
[21] = second compound 3.16 µM, first compound 0.00316 µM
[22] = second compound 3.16 µM, first compound 0.01 µM
[23] = second compound 3.16 µM, first compound 0.0316 µM
[24] = second compound 3.16 µM, first compound 0.1 µM
[25] = second compound 10 µM, first compound 0.000316 µM
[26] = second compound 10 µM, first compound 0.001 µM
[27] = second compound 10 µM, first compound 0.00316 µM
[28] = second compound 10 µM, first compound 0.01 µM
[29] = second compound 10 µM, first compound 0.0316 µM
[30] = second compound 10 µM, first compound 0.1 µM
[31] = second compound 0.1 µM, first compound 0.316 µM
[32] = second compound 0.1 µM, first compound 1 µM
[33] = second compound 0.1 µM, first compound 3.16 µM
[34] = second compound 0.316 µM, first compound 0.316 µM
[35] = second compound 0.316 µM, first compound 1 µM
[36] = second compound 0.316 µM, first compound 3.16 µM
[37] = second compound 1 µM, first compound 0.316 µM
[38] = second compound 1 µM, first compound 1 µM
[39] = second compound 1 µM, first compound 3.16 µM
[40] = second compound 3.16 µM, first compound 0.316 µM
[41] = second compound 3.16 µM, first compound 1 µM
[42] = second compound 3.16 µM, first compound 3.16 µM
[43] = second compound 10 µM, first compound 0.316 µM
[44] = second compound 10 µM, first compound 1 µM
[45] = second compound 10 µM, first compound 3.16 µM
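For IC50 in this document: drug exposure lasted seven days after spheroids formed for three days.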
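For viability, T/C in this document: drug exposure lasted seven days after spheroids formed for three days; 100% = DMSO vehicle control viability.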

Work on `CN(C)C/C=C/C(=O)Nc1cc2c(Nc3ccc(F)c(Cl)c3)ncnc2cc1O[C@H]1CCOC1` + CC1OCC2(CCN(c3cnc(Sc4ccnc(N)c4Cl)c(N)n3)CC2)C1N yielded an IC50 (second compound 0.1 µM) of 4.99 nM, an IC50 (second compound 0.316 µM) of less than 0.316 nM and an IC50 (second compound 1 µM) greater than 100 nM. It also gave an IC50 (second compound 3.16 µM) of less than 0.316 nM, an IC50 (second compound 10 µM) of less than 0.316 nM and a viability, T/C [1] of 55.9%. It also gave a viability, T/C [2] of 51.9%, a viability, T/C [3] of 50.8% and a viability, T/C [4] of 52.2%. It also gave a viability, T/C [5] of 43.3%, a viability, T/C [6] of 49.4% and a viability, T/C [7] of 44.1%. For the same compound, the viability, T/C [8] was 40.5%, the viability, T/C [9] was 43.1% and the viability, T/C [10] was 30.6%. For the same compound, the viability, T/C [11] was 29.9%, the viability, T/C [12] was 32.7% and the viability, T/C [13] was 106%. For the same compound, the viability, T/C [14] was 84.5%, the viability, T/C [15] was 96.2% and the viability, T/C [16] was 78.9%. For the same compound, the viability, T/C [17] was 59%, the viability, T/C [18] was 69.3% and the viability, T/C [19] was 19.9%. For the same compound, the viability, T/C [20] was 15.2%, the viability, T/C [21] was 16.2% and the viability, T/C [22] was 21.2%. For the same compound, the viability, T/C [23] was 18.4%, the viability, T/C [24] was 21.6% and the outcome [25] was “inactive”. For the same compound, the outcome [26] was “inactive”, the viability, T/C [27] was 15.9% and the outcome [28] was “inactive”. The viability, T/C [29] was 13.4% and the viability, T/C [30] was 12.9%.
In the case of `O=C(c1cc(Cc2n[nH]c(=O)c3ccccc23)ccc1F)N1CCN(C(=O)C2CC2)CC1` + CNCc1ccccc1-c1csc(C(C)Nc2nc(C)nc3cc(OC)c(OC)cc23)c1, the IC50 (second compound 0.1 µM) is reported as greater than 10000 nM, the IC50 (second compound 0.316 µM) is reported as greater than 10000 nM and the IC50 (second compound 1 µM) is reported as greater than 10000 nM. It also gave an IC50 (second compound 3.16 µM) of 3590 nM, an IC50 (second compound 10 µM) of less than 31.6 nM and a viability, T/C [5] of 88.1%. For the same compound, the viability, T/C [6] was 95.4%, the viability, T/C [31] was 80.6% and the viability, T/C [32] was 79.5%. The viability, T/C [33] was 74.1%, the viability, T/C (second compound 0.1 µM, first compound 10 µM) was 81.6% and the viability, T/C [11] was 69.6%. It also gave a viability, T/C [12] of 58.8%, a viability, T/C [34] of 63.9% and a viability, T/C [35] of 52.8%. The viability, T/C [36] was 61.5%, the viability, T/C (second compound 0.316 µM, first compound 10 µM) was 60.5% and the viability, T/C [17] was 78.1%. For the same compound, the viability, T/C [18] was 72.2%, the viability, T/C [37] was 68.3% and the viability, T/C [38] was 71.5%. It also gave a viability, T/C [39] of 67%, a viability, T/C (second compound 1 µM, first compound 10 µM) of 64.4% and a viability, T/C [23] of 46.5%. The viability, T/C [24] was 80%, the viability, T/C [40] was 84.2% and the viability, T/C [41] was 0.72%. The viability, T/C [42] was 69.7%, the viability, T/C (second compound 3.16 µM, first compound 10 µM) was 0.31% and the viability, T/C [29] was 0.22%. It also gave a viability, T/C [30] of 0.82%, a viability, T/C [43] of 0.19% and a viability, T/C [44] of 0.61%. The viability, T/C [45] was 0.17% and the viability, T/C (second compound 10 µM, first compound 10 µM) was 0.2%.
In the case of `CCN1CCN(Cc2ccc(Nc3ncc(F)c(-c4cc(F)c5nc(C)n(C(C)C)c5c4)n3)nc2)CC1` + CC1OCC2(CCN(c3cnc(Sc4ccnc(N)c4Cl)c(N)n3)CC2)C1N, the IC50 (second compound 0.1 µM) is reported as 6.46 nM, the IC50 (second compound 0.316 µM) is reported as less than 3.16 nM and the IC50 (second compound 1 µM) is reported as less than 3.16 nM. The IC50 (second compound 3.16 µM) was less than 3.16 nM, the IC50 (second compound 10 µM) was less than 3.16 nM and the viability, T/C [3] was 54.8%. It also gave a viability, T/C [4] of 48.2%, a viability, T/C [5] of 41.1% and a viability, T/C [6] of 41.2%. For the same compound, the viability, T/C [31] was 39.9%, the viability, T/C [32] was 39.1% and the viability, T/C [9] was 35.5%. The viability, T/C [10] was 30.2%, the viability, T/C [11] was 27.7% and the viability, T/C [12] was 25.5%. The viability, T/C [34] was 23%, the viability, T/C [35] was 24.2% and the viability, T/C [15] was 26%. For the same compound, the viability, T/C [16] was 23.1%, the viability, T/C [17] was 20.7% and the viability, T/C [18] was 17.7%. The viability, T/C [37] was 16.5%, the viability, T/C [38] was 20.5% and the viability, T/C [21] was 15.2%. The viability, T/C [22] was 16.7%, the viability, T/C [23] was 16.1% and the viability, T/C [24] was 10.6%. For the same compound, the viability, T/C [40] was 10.9%, the viability, T/C [41] was 14.9% and the viability, T/C [27] was 10.4%. The viability, T/C [28] was 7.73%, the viability, T/C [29] was 6.15% and the viability, T/C [30] was 6.13%. For the same compound, the viability, T/C [43] was 7.13% and the viability, T/C [44] was 15.3%.
`CC1COCCN1c1cc(-c2ccnn2C)c2ccnc(-c3ccn[nH]3)c2n1` (stereo not given) + CNCc1ccccc1-c1csc(C(C)Nc2nc(C)nc3cc(OC)c(OC)cc23)c1 showed an IC50 (second compound 0.1 µM) greater than 3160 nM, an IC50 (second compound 0.316 µM) of 372 nM and an IC50 (second compound 1 µM) of 41.4 nM. It also gave an IC50 (second compound 3.16 µM) of 160 nM, an IC50 (second compound 10 µM) of less than 10 nM and a viability, T/C [4] of 87.1%. The viability, T/C [5] was 74.4%, the viability, T/C [6] was 60.2% and the viability, T/C [31] was 58.9%. The viability, T/C [32] was 48.6%, the viability, T/C [33] was 54% and the viability, T/C [10] was 85.9%. It also gave a viability, T/C [11] of 77.7%, a viability, T/C [12] of 60.6% and a viability, T/C [34] of 50.6%. It also gave a viability, T/C [35] of 46%, a viability, T/C [36] of 49.2% and a viability, T/C [16] of 68%. The viability, T/C [17] was 50.7%, the viability, T/C [18] was 42.6% and the viability, T/C [37] was 41.4%. It also gave a viability, T/C [38] of 34.7%, a viability, T/C [39] of 33.4% and a viability, T/C [22] of 65.6%. For the same compound, the viability, T/C [23] was 58.5%, the viability, T/C [24] was 61.6% and the viability, T/C [40] was 29.8%. It also gave a viability, T/C [41] of 33.2%, a viability, T/C [42] of 36.2% and a viability, T/C [28] of 0.18%. The viability, T/C [29] was 0.17%, the viability, T/C [30] was 0.15% and the viability, T/C [43] was 0.17%. For the same compound, the viability, T/C [44] was 0.74% and the viability, T/C [45] was 0.24%.
`CC(=O)Nc1cccc(-n2c(=O)n(C3CC3)c(=O)c3c(Nc4ccc(I)cc4F)n(C)c(=O)c(C)c32)c1` + CC1OCC2(CCN(c3cnc(Sc4ccnc(N)c4Cl)c(N)n3)CC2)C1N showed an IC50 (second compound 0.1 µM) of less than 0.1 nM, an IC50 (second compound 0.316 µM) of less than 0.1 nM and an IC50 (second compound 1 µM) of less than 0.1 nM. It also gave an IC50 (second compound 3.16 µM) of less than 0.1 nM, an IC50 (second compound 10 µM) of less than 0.1 nM and a viability, T/C (second compound 0.1 µM, first compound 0.0001 µM) of 53.7%. It also gave a viability, T/C [1] of 44.6%, a viability, T/C [2] of 49.4% and a viability, T/C [3] of 44.7%. For the same compound, the viability, T/C [4] was 22.7%, the viability, T/C [5] was 7.91% and the viability, T/C (second compound 0.316 µM, first compound 0.0001 µM) was 37.1%. It also gave a viability, T/C [7] of 31.2%, a viability, T/C [8] of 25.6% and a viability, T/C [9] of 21.9%. For the same compound, the viability, T/C [10] was 14.9%, the viability, T/C [11] was 7.83% and the viability, T/C (second compound 1 µM, first compound 0.0001 µM) was 22.4%. For the same compound, the viability, T/C [13] was 21.8%, the viability, T/C [14] was 17.6% and the viability, T/C [15] was 8.6%. For the same compound, the viability, T/C [16] was 6.42%, the viability, T/C [17] was 3.01% and the viability, T/C (second compound 3.16 µM, first compound 0.0001 µM) was 14.7%. It also gave a viability, T/C [19] of 8.03%, a viability, T/C [20] of 2.89% and a viability, T/C [21] of 1.92%. The viability, T/C [22] was 1.41%, the viability, T/C [23] was 3.95% and the viability, T/C (second compound 10 µM, first compound 0.0001 µM) was 5.94%. The viability, T/C [25] was 2.29%, the viability, T/C [26] was 2.96% and the viability, T/C [27] was 1.63%. The viability, T/C [28] was 1.31% and the viability, T/C [29] was 2.49%.
